# Test results from patent US8962596B2 (Array BioPharma Inc., priority 2010, dated 2015).
# Tests used:
# Format in all cases: biochemical
# [1] = target: T1, JAK3 (Homo sapiens, UniProt P52333); experiment: JAK3 Inhibition Assay (Omnia kinase fluorescence peptide substrate assay); settings: averaged IC50 ranges; assay of Example D; 10 μM (Km app) or 1 mM ATP, 2.5 nM JAK3
# T1 construct: purchased Invitrogen Corporation, Carlsbad, Calif; PV4080
# T1 sequence (P52333 1-1124): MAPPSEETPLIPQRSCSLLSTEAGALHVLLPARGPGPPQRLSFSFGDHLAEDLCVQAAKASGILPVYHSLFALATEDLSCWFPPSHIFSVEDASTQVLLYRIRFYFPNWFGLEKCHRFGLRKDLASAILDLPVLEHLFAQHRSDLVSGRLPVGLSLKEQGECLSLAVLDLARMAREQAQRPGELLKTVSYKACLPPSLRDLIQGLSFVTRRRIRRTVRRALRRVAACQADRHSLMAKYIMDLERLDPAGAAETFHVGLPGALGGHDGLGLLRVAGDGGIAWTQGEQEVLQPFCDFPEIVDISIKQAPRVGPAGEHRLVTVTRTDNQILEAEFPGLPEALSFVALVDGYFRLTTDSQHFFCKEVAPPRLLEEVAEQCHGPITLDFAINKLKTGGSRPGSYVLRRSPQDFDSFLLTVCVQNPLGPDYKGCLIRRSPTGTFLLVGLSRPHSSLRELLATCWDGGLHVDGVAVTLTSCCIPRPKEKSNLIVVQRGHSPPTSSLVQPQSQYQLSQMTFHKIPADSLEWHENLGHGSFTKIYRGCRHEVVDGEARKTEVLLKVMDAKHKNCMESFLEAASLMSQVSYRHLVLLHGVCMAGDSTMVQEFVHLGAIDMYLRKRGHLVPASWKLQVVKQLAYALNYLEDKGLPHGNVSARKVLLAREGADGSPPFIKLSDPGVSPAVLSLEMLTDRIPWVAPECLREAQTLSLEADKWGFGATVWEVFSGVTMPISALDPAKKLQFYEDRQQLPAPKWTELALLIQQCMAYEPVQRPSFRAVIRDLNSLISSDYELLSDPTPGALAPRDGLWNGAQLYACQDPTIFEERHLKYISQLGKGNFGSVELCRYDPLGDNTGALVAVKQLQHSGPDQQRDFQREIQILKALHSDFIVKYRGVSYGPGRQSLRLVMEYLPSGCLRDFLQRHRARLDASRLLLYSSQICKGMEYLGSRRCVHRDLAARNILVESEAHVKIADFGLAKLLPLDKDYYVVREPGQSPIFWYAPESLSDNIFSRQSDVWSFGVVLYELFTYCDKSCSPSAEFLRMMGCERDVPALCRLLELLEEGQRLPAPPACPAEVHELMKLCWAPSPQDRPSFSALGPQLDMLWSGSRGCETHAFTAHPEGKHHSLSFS
# Excerpt: (§1) The assays described in Examples A, B, C and D for the determination of Tyk2, JAK1, JAK2 and JAK3 kinase activity, respectively, utilized the Omnia® Kinase fluorescence peptide substrate-based technology (Invitrogen). The specific components of the assay mixture are described in Examples A, B, C and D. In these assays, Mg^2+ is chelated upon phosphorylation of the Omnia peptide by the kinase to form a bridge between the chelation-enhanced fluorophore Sox and the phosphate, resulting in an increase in fluorescence emission at 485 nm when excited at […]. The reactions were therefore read at excitation 360 nm and emission was measured at 485 nm every 50 seconds for 45 minutes using a PerkinElmer EnVision Multilabel Plate Reader.
# (§2) The final buffer conditions for Tyk2, JAK1, JAK2, and JAK3 assays were as follows: 25 mM HEPES, pH 7.4, 10 mM MgCl2, 0.01% Triton X-100 and 1 mM DTT.
# (§3) Compounds were prepared at 50× the final concentration in DMSO by conducting 3-fold serial dilutions from a 500-μM intermediate dilution to give a 10-point dosing curve having a high dose of 10 μM. Two-μL aliquots of these were transferred to a fresh plate for a ten-fold intermediate dilution with assay buffer. Five-μL aliquots of the diluted compounds were then transferred to 20-μL of assay mixtures described in Examples A, B, C and D for a final concentration of DMSO of 2%. A standard or reference compound was typically included on each assay plate to validate that plate. For each plate, percent of control (POC) values were calculated for each well according to the following equation:
# (§4) where Xmax=Average Uninhibited Controls • Xmin=Average Background IC50's were estimated from the POC's using a standard 4-parameter logistic model:
# (§5) where • A=Minimum Y (Bottom Asymptote) • B=Maximum Y (Top Asymptote) • C=EC50 • D=Slope Factor • X=Compound Concentration (nM) • Y=POC
# (§6) The IC50 is defined as the concentration of inhibitor at which the POC equals 50 for the fitted curve.
# (§7) Compounds of Formula I were screened for their ability to inhibit JAK3 using the general enzyme inhibition assay method, in which the assay mixture contained 10 μM (Km app) or 1 mM ATP, 10 μM Omnia® Y7 peptide (Catalog #IVGN KNZ3071C, Invitrogen Corporation, Carlsbad, Calif.) and 2.5 nM JAK3 in a total volume of 20 μL. JAK3 was purchased from Invitrogen Corporation, Carlsbad, Calif. (catalog #IVGN PV4080).
# [2] = target: T2, JAK1 (Homo sapiens, UniProt P23458); experiment: JAK1 Inhibition Assay (Omnia kinase fluorescence peptide substrate assay); settings: averaged IC50 ranges; assay of Example B; 40 μM (Km app) or 1 mM ATP, 15 nM JAK1
# T2 construct: purchased Invitrogen Corporation, Carlsbad, Calif; PV4775
# T2 sequence (P23458 whole entry): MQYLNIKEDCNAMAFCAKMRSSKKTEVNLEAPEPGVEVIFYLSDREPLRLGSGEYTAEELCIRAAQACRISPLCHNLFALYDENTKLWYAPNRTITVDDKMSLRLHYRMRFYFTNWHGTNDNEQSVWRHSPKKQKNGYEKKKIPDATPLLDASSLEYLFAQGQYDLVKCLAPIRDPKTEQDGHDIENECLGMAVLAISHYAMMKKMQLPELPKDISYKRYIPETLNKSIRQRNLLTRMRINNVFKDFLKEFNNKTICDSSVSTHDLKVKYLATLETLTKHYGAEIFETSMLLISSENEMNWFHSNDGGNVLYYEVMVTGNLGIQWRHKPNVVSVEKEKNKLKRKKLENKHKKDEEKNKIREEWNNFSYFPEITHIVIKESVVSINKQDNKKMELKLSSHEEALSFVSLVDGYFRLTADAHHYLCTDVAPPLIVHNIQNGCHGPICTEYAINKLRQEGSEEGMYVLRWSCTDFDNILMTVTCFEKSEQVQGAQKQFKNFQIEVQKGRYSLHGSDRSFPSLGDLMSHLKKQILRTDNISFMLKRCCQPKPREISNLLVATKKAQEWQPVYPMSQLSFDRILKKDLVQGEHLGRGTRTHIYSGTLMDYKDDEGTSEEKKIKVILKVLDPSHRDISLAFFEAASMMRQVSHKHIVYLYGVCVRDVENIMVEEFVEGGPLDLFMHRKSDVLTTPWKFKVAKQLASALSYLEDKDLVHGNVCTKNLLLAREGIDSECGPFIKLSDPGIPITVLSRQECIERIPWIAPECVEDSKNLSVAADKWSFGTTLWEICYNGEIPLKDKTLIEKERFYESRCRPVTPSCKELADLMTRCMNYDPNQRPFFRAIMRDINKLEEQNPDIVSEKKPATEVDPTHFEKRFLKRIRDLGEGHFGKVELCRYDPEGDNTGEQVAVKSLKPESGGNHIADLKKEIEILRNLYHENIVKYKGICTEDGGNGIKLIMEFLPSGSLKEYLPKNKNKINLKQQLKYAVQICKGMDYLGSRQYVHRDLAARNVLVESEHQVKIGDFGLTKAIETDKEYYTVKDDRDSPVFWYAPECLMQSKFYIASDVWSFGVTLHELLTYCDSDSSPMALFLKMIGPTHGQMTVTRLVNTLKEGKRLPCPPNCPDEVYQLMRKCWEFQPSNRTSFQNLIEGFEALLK
# Excerpt: as §1, §2, §3, §4, §5, §6
# Compounds of Formula I were screened for their ability to inhibit JAK1 using the general enzyme inhibition assay method, in which the assay mixture contained 40 μM (Km app) or 1 mM ATP, 8 μM Omnia® Y12 peptide (Catalog #IVGN KPZ3121C; Invitrogen Corporation, Carlsbad, Calif.) and 15 nM JAK1 in a total volume of 20 μL. JAK1 was purchased from Invitrogen Corporation, Carlsbad, Calif. (catalog #IVGN PV4775).
# [3] = target: T3, Human Tyk2 kinase domain (Homo sapiens, UniProt P29597); experiment: Tyk2 Inhibition Assay (Omnia kinase fluorescence peptide substrate assay); settings: averaged IC50 ranges; assay of Example A; 10 μM (Km app) or 1 mM ATP, 2 nM Tyk2
# T3 construct: comprising amino acids 886 to 1187 with 10 additional histidine residues; 10xHis (histidine tag) (C, cleaved yes); made in house
# T3 sequence (P29597 886-1187): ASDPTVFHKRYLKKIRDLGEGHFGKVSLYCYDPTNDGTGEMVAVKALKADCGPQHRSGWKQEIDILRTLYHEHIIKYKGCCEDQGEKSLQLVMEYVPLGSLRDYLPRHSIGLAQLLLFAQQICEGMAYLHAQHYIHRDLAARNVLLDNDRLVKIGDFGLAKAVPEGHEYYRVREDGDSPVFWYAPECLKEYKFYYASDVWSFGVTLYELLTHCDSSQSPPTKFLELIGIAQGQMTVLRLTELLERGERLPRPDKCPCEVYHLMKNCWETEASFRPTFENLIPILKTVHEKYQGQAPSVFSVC
# Excerpt: as §1, §2, §3, §4, §5, §6
# Compounds of Formula I were screened for their ability to inhibit Tyk2 using the general enzyme inhibition assay method, in which the assay mixture contained 10 μM (Km app) or 1 mM ATP, 8 μM Omnia® Y12 peptide (Catalog #IVGN KPZ3121C; Invitrogen Corporation, Carlsbad, Calif.) and 2 nM Tyk2 in a total volume of 20 μL. Human Tyk2 kinase domain, comprising amino acids 886 to 1187 with 10 additional histidine residues (histidine tag) on the carboxy terminus, was expressed and purified from bacculovirus in-house at Array BioPharma Inc. (Boulder, Colo.). The histidine tag was cleaved after purification using standard conditions.
# [4] = target: T4, JAK2 (Homo sapiens, UniProt O60674); experiment: JAK2 Inhibition Assay (Omnia kinase fluorescence peptide substrate assay); settings: averaged IC50 ranges; assay of Example C; 25 μM (Km app) or 1 mM ATP, 5 nM JAK2
# T4 construct: purchased Invitrogen Corporation, Carlsbad, Calif; PV4288
# T4 sequence (O60674 whole entry): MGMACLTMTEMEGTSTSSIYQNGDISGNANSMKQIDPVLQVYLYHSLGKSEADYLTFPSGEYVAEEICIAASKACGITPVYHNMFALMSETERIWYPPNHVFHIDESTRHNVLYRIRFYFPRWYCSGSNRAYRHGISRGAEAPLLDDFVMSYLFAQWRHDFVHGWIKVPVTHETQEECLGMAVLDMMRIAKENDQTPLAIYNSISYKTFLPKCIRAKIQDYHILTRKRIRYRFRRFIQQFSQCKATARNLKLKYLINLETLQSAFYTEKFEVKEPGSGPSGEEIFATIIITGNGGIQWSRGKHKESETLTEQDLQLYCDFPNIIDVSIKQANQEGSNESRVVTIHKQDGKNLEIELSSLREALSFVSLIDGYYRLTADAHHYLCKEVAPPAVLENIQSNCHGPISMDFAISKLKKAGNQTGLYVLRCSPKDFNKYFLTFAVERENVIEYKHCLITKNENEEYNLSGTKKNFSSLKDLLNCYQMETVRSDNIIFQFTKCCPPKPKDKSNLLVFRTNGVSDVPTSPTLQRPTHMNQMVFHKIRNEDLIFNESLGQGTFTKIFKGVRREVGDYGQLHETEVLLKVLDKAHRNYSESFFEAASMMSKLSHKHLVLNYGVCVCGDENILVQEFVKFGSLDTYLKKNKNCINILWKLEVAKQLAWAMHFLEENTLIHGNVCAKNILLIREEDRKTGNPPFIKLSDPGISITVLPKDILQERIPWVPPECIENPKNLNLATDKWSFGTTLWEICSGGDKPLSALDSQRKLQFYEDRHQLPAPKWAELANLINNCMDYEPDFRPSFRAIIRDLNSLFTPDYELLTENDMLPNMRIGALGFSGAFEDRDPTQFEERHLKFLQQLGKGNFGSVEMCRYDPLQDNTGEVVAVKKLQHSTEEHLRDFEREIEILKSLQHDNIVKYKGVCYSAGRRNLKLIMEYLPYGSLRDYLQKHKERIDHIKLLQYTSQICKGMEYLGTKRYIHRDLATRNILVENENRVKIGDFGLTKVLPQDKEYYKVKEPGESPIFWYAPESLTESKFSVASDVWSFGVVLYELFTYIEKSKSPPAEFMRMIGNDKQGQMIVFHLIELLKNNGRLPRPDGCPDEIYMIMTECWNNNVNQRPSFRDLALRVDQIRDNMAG
# Excerpt: as §1, §2, §3, §4, §5, §6
# as §7, with “inhibit JAK2” for “inhibit JAK3”, “contained 25” for “contained 10”, “and 5” for “and 2.5”, “nM JAK2” for “nM JAK3”, “μL. JAK2” for “μL. JAK3”, “#IVGN PV4288).” for “#IVGN PV4080).”
IC50 [1],IC50 [2],IC50 [3],IC50 [4],Compound
> 1 µM,0.01 to 0.1 µM,< 0.01 µM,0.01 to 0.1 µM,"Cn1cc(-c2cc3nccn3c(-c3cnn(C(CC#N)C4CCC4)c3)n2)cn1 (centres unmarked) [Example 20, 3-cyclobutyl-3-(4-(7-(1-methyl-1H-pyrazol-4-yl)imidazo[1,2-c]pyrimidin-5-yl)-1H-pyrazol-1-yl)propanenitrile]"
> 1 µM,> 1 µM,0.1 to 1 µM,> 1 µM,"Cn1cc(-c2cc3nccn3c(-c3cnn(C4(CC#N)CCN(C(=O)OC(C)(C)C)CC4)c3)n2)cn1 [Example 21, tert-butyl 4-(cyanomethyl)-4-(4-(7-(1-methyl-1H-pyrazol-4-yl)imidazo[1,2-c]pyrimidin-5-yl)-1H-pyrazol-1-yl)piperidine-1-carboxylate]"
> 1 µM,0.1 to 1 µM,0.01 to 0.1 µM,0.1 to 1 µM,"Cn1cc(-c2cc3nccn3c(-c3cnn(C4(CC#N)CCCCC4)c3)n2)cn1 [Example 22, 2-(1-(4-(7-(1-methyl-1H-pyrazol-4-yl)imidazo[1,2-c]pyrimidin-5-yl)-1H-pyrazol-1-yl)cyclohexyl)acetonitrile]"
> 1 µM,0.1 to 1 µM,0.01 to 0.1 µM,0.1 to 1 µM,"Cn1cc(-c2cc3nccn3c(-c3cnn(C4(CC#N)CCCC4)c3)n2)cn1 [Example 23, 2-(1-(4-(7-(1-methyl-1H-pyrazol-4-yl)imidazo[1,2-c]pyrimidin-5-yl)-1H-pyrazol-1-yl)cyclopentyl)acetonitrile]"
> 1 µM,0.01 to 0.1 µM,0.01 to 0.1 µM,0.01 to 0.1 µM,"Cn1cc(-c2cc3nccn3c(-c3cnn(C4(CC#N)COC4)c3)n2)cn1 [Example 24, 2-(3-(4-(7-(1-methyl-1H-pyrazol-4-yl)imidazo[1,2-c]pyrimidin-5-yl)-1H-pyrazol-1-yl)oxetan-3-yl)acetonitrile]"
0.1 to 1 µM,0.01 to 0.1 µM,< 0.01 µM,0.01 to 0.1 µM,"Cn1cc(-c2cc3ncc(Cl)n3c(-c3cnn(C(CC#N)C4CC4)c3)n2)cn1 (centres unmarked) [Example 25, 3-(4-(3-chloro-7-(1-methyl-1H-pyrazol-4-yl)imidazo[1,2-c]pyrimidin-5-yl)-1H-pyrazol-1-yl)-3-cyclopropylpropanenitrile]"
> 1 µM,> 1 µM,0.1 to 1 µM,0.1 to 1 µM,"Cn1cc(-c2cc3ncc(C#N)n3c(-c3cnn(C(CC#N)C4CC4)c3)n2)cn1 (centres unmarked) [Example 26, 5-(1-(2-cyano-1-cyclopropylethyl)-1H-pyrazol-4-yl)-7-(1-methyl-1H-pyrazol-4-yl)imidazo[1,2-c]pyrimidine-3-carbonitrile]"
> 1 µM,0.1 to 1 µM,0.1 to 1 µM,0.1 to 1 µM,"CC(=O)N1CCC(C(CC#N)n2cc(-c3nc(-c4cnn(C)c4)cc4nccn34)cn2)CC1 (centres unmarked) [Example 27, 3-(1-acetylpiperidin-4-yl)-3-(4-(7-(1-methyl-1H-pyrazol-4-yl)imidazo[1,2-c]pyrimidin-5-yl)-1H-pyrazol-1-yl)propanenitrile]"
> 1 µM,> 1 µM,0.01 to 0.1 µM,0.1 to 1 µM,"CN1CCC(CC#N)(n2cc(-c3nc(-c4cnn(C)c4)cc4nccn34)cn2)CC1 [Example 28, 2-(1-methyl-4-(4-(7-(1-methyl-1H-pyrazol-4-yl)imidazo[1,2-c]pyrimidin-5-yl)-1H-pyrazol-1-yl)piperidin-4-yl)acetonitrile]"
> 1 µM,> 1 µM,0.1 to 1 µM,> 1 µM,"CCN1CCC(CC#N)(n2cc(-c3nc(-c4cnn(C)c4)cc4nccn34)cn2)CC1 [Example 29, 2-(1-ethyl-4-(4-(7-(1-methyl-1H-pyrazol-4-yl)imidazo[1,2-c]pyrimidin-5-yl)-1H-pyrazol-1-yl)piperidin-4-yl)acetonitrile]"
> 1 µM,> 1 µM,0.1 to 1 µM,> 1 µM,"CCCN1CCC(CC#N)(n2cc(-c3nc(-c4cnn(C)c4)cc4nccn34)cn2)CC1 [Example 30, 2-(4-(4-(7-(1-methyl-1H-pyrazol-4-yl)imidazo[1,2-c]pyrimidin-5-yl)-1H-pyrazol-1-yl)-1-propylpiperidin-4-yl)acetonitrile]"
